Consider 4 compounds from ChEMBL document CHEMBL2331164, “Aspulvinones from a mangrove rhizosphere soil-derived fungus Aspergillus terreus Gwq-48 with anti-influenza A viral (H1N1) activity” (Bioorg Med Chem Lett, 2013).

For data set [1], the target named is Neuraminidase (Influenza A virus (A/Puerto Rico/8/1934(H1N1))) (UniProt P03468). Kind of data set: Inhibition of inactivated Influenza A virus (A/Puerto Rico/8/1934(H1N1)) neuraminidase using MUNANA as substrate at 100 ug/mL incubated for 60 mins prior to substrate addition measured after 45 mins by fluorescence assay relative to control.
Data set [2] can be described thus: Cytotoxicity against MDCK cells assessed as cell viability after 72 hrs by MTT assay. It is filed as cell-based, Canis lupus familiaris. As to conditions: dog.
The nature of data set [3]: Cytotoxicity against human A549 cells assessed as cell viability after 72 hrs by MTT assay. It is filed as cell-based. In general terms: Tetrazolium assays rely on reduction of a dye to a coloured formazan, in cell work by metabolically active cells.
Data set [4] deals with Neuraminidase (Influenza A virus (A/Puerto Rico/8/1934(H1N1))) (UniProt P03468). The data set is described as follows: (§1) Inhibition of inactivated Influenza A virus (A/Puerto Rico/8/1934(H1N1)) neuraminidase using MUNANA as substrate incubated for 60 mins prior to substrate addition measured after 45 mins by fluorescence assay.
For data set [5], the target named is Neuraminidase (Influenza A virus (A/Puerto Rico/8/1934(H1N1)), UniProt P03468). Described as §1.
In another data set the test system is Influenza A virus. The data set is described as follows: microbe, parasite or virus in culture. As to conditions: A/Puerto Rico/8/1934(H1N1), MDCK, 48 h.

In brackets after ≈: the same amount, converted by molar mass.

For orientation: inhibition means how much of the control response was suppressed. By CC50 is commonly meant the concentration at which the toxic effect on the cells reaches its halfway point. The term IC50 denotes the midpoint of a concentration-inhibition curve.

Neuraminidase (Influenza A virus (A/Puerto Rico/8/1934(H1N1))), sequence (P03468 whole entry): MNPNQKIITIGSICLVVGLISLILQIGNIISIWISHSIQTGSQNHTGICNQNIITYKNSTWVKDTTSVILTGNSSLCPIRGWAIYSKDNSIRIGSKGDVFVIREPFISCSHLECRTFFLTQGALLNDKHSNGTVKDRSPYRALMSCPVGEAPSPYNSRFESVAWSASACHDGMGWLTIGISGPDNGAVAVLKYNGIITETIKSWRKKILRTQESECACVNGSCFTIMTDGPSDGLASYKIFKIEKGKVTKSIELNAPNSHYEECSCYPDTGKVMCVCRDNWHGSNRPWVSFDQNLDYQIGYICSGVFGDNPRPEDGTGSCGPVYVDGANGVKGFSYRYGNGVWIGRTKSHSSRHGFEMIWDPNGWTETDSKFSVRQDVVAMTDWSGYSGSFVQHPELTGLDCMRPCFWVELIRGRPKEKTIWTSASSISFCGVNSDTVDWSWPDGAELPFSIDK
Neuraminidase (Influenza A virus (A/Puerto Rico/8/1934(H1N1)), UniProt P03468), sequence (P03468 whole entry): as above

Turning to `O=C1O/C(=C/c2ccc(O)cc2)C(O)=C1c1ccc(O)cc1` [ISOASPULVINONE E], the inhibition is 60% in data set [1] and “Dose-dependent effect” in data set [4]. The cytotoxic concentration (CC50) at 72 h in data set [2] and in data set [3] was greater than 250 µg/mL in each case. Also, the half-maximal inhibitory concentration (IC50) is 210 µM in data set [5] and 32.3 µg/mL (≈ 109 µM) with Influenza A virus.
For `O=C1O/C(=C(/C(=O)O)c2ccccc2)C(O)=C1c1ccccc1` [PULVIC ACID], the CC50 at 72 h in data set [2] and in data set [3] was greater than 250 µg/mL each time. In the data set on Influenza A virus, this compound gave an IC50 of 29.1 µg/mL (≈ 94.4 µM).
On to `O=C1O/C(=C\c2ccc(O)cc2)C(O)=C1c1ccc(O)cc1` [ASPULVINONE E], for which the half-maximal cytotoxic concentration (CC50) at 72 h in data set [2] and in data set [3] was greater than 250 µg/mL throughout. This compound yielded an IC50 in the data set with Influenza A virus of 56.9 µg/mL (≈ 192 µM).
In the data set with Influenza A virus, `CC(=O)N[C@H]1[C@H]([C@H](O)[C@H](O)CO)OC(C(=O)O)=C[C@@H]1NC(=N)N` [ZANAMIVIR] displayed a half-inhibitory concentration (IC50) of 0.0284 µg/mL (≈ 0.0855 µM).
